Here are results for one compound from patent EP3692978A1, “NOVEL METHOD” (DSM IP Assets B.V., priority 2019, dated 2020).

Like-named read-outs stand apart in the source and are kept apart here. Where a SMILES comes first, the peptide text is derived from it. [ ]: non-standard residue; d: D form. The star is where a group is joined. Bz = O=C(c1ccccc1)*; NPr2 = CCCN(CCC)*

The subject of this test is human hair follicles. The format is cell-based. The note with it: hair shaft elongation after 4 days versus vehicle (DMSO) control. The text has this: Microdissection of human hair follicles: Human scalp skin samples containing mainly anagen VI hair follicles were obtained from elective face-lift plastic surgery. Informed consent was obtained. Hair follicles were truncated below the dermis, while the remaining hair bulb was separated from the dermal/subcutaneous tissue and placed in appropriate culture medium. Before the experiment, each hair follicle underwent a stringent selection, that is operated by controlling the hair shaft elongation following 18 hrs of organ culture, as well as the general organ morphology. Only the hair follicles that grew at least 0.19 ± 0.02 mm/18 hrs were used for the experiment.
Treatment: The hair growth inhibition of Bz-Gly-His-D-Phe-Arg-D-Trp-N(Pr)2 *2MSA in the concentrations as indicated in table 2 was assessed versus control, i.e. versus a treatment with the vehicle (i.e. DMSO) alone. Evaluation of hair growth inhibition: pictures of the hair follicles in culture were taken at baseline and after 4 days and the hair shaft elongation was measured to determine the hair growth. Table 2: Results

`CCCN(CCC)C(=O)[C@@H](Cc1c[nH]c2ccccc12)NC(=O)[C@H](CCCNC(=N)N)NC(=O)[C@@H](Cc1ccccc1)NC(=O)[C@H](Cc1c[nH]cn1)NC(=O)CNC(=O)c1ccccc1` [Bz-Gly-His-D-Phe-Arg-D-Trp-N(Pr)2 *2MSA] (Bz-GH[dF]R[dW]-NPr2): the “% hair growth inhibition” value reads like this: (1 nM, p = 0.067 (paired t-test)) 12%; (100 nM, p = 0.019 (paired t-test)) 29%.
